Test results taken from ChEMBL document CHEMBL4002623, “Synthesis and in vitro activity of dicationic indolyl diphenyl ethers as novel potent antibiotic agents against drug-resistant bacteria” (Bioorg Med Chem Lett, 2017).
Converted amounts (≈) assume the structure as drawn.

Columns and labels:
Pseudomonas aeruginosa [1] = test: Antibacterial activity against Pseudomonas aeruginosa 09-14 by agar dilution method; type: functional
Enterococcus faecalis [2] = test: Antibacterial activity against vancomycin-sensitive Enterococcus faecalis ATCC 29212 by agar dilution method; type: functional
[3] = Cytotoxicity against HEK293T cells after 48 hrs by MTS assay; type: cell-based, HEK-293T; settings: human
Enterococcus faecalis [4] = test: Antibacterial activity against vancomycin-resistant Enterococcus faecalis 09-9 by agar dilution method; type: functional
Enterococcus faecalis [5] = test: Antibacterial activity against vancomycin-sensitive Enterococcus faecalis 09-8 by agar dilution method; type: functional
Enterococcus faecalis [6] = test: Antibacterial activity against vancomycin-resistant Enterococcus faecalis ATCC 51299 by agar dilution method; type: functional
Enterococcus faecium [7] = test: Antibacterial activity against vancomycin-resistant Enterococcus faecium ATCC 700221 by agar dilution method; type: functional
Enterobacter cloacae = test: Antibacterial activity against Enterobacter cloacae 45301 by agar dilution method; type: functional
Enterococcus faecium [8] = test: Antibacterial activity against vancomycin-resistant Enterococcus faecium 05-8 by agar dilution method; type: functional
Klebsiella aerogenes = test: Antibacterial activity against Enterobacter aerogenes 45102 by agar dilution method; type: functional
Klebsiella pneumoniae [9] = test: Antibacterial activity against extended-spectrum beta-lactamase-negative Klebsiella pneumoniae 09-8 by agar dilution method; type: functional
Klebsiella pneumoniae [10] = test: Antibacterial activity against extended-spectrum beta-lactamase-negative Klebsiella pneumoniae 7 by agar dilution method; type: functional
Staphylococcus aureus [11] = test: Antibacterial activity against methicillin-sensitive Staphylococcus aureus ATCC 29213 by agar dilution method; type: functional
Enterococcus faecium [12] = test: Antibacterial activity against vancomycin-sensitive Enterococcus faecium 09-10 by agar dilution method; type: functional
Morganella morganii = test: Antibacterial activity against Morganella morganii ATCC 25830 by agar dilution method; type: functional
Serratia marcescens = test: Antibacterial activity against Serratia marcescens 41002 by agar dilution method; type: functional
Citrobacter freundii = test: Antibacterial activity against Citrobacter freundii ATCC 43864 by agar dilution method; type: functional
Pseudomonas aeruginosa [13] = test: Antibacterial activity against Pseudomonas aeruginosa ATCC 27853 by agar dilution method; type: functional
[14] = test system: Staphylococcus epidermidis; test: Antibacterial activity against methicillin-sensitive Staphylococcus epidermidis ATCC 12228 by agar dilution method; type: functional
Staphylococcus aureus [15] = test: Antibacterial activity against methicillin-sensitive Staphylococcus aureus 15 by agar dilution method; type: functional
[16] = test system: Staphylococcus epidermidis; test: Antibacterial activity against methicillin-sensitive Staphylococcus epidermidis 09-9 by agar dilution method; type: functional
Providencia rettgeri = test: Antibacterial activity against Providencia rettgeri ATCC 31052 by agar dilution method; type: functional
Klebsiella pneumoniae [17] = test: Antibacterial activity against Klebsiella pneumoniae ATCC BAA-2146 expressing NDM-1 by agar dilution method; type: functional
Escherichia coli [18] = test: Antibacterial activity against extended-spectrum beta-lactamase-negative Escherichia coli 1515 by agar dilution method; type: functional
[19] = test system: Staphylococcus epidermidis; test: Antibacterial activity against methicillin-resistant Staphylococcus epidermidis 09-3 by agar dilution method; type: functional
Staphylococcus aureus [20] = test: Antibacterial activity against methicillin-sensitive Staphylococcus aureus 09-6 by agar dilution method; type: functional
Escherichia coli [21] = test: Antibacterial activity against extended-spectrum beta-lactamase-positive Escherichia coli 09-1 by agar dilution method; type: functional
Salmonella typhi = test: Antibacterial activity against Salmonella typhi H901 by agar dilution method; type: functional, Salmonella enterica subsp. enterica serovar Typhi; settings: Salmonella enterica
Escherichia coli [22] = test: Antibacterial activity against extended-spectrum beta-lactamase-negative Escherichia coli ATCC 25922 by agar dilution method; type: functional
Staphylococcus aureus [23] = test: Antibacterial activity against methicillin-resistant Staphylococcus aureus 09-13 by agar dilution method; type: functional
Escherichia coli [24] = test: Antibacterial activity against extended-spectrum beta-lactamase-negative Escherichia coli 09-20 by agar dilution method; type: functional
Proteus vulgaris = test: Antibacterial activity against Proteus vulgaris ATCC 29905 by agar dilution method; type: functional
Staphylococcus aureus [25] = test: Antibacterial activity against methicillin-resistant Staphylococcus aureus ATCC 33591 by agar dilution method; type: functional
Pseudomonas aeruginosa [26] = test: Antibacterial activity against Pseudomonas aeruginosa PAO1 by agar dilution method; type: functional
Klebsiella pneumoniae [27] = test: Antibacterial activity against extended-spectrum beta-lactamase-positive Klebsiella pneumoniae 09-25 by agar dilution method; type: functional
Klebsiella pneumoniae [28] = test: Antibacterial activity against extended-spectrum beta-lactamase-positive Klebsiella pneumoniae ATCC 700603 by agar dilution method; type: functional
[29] = test system: Acinetobacter calcoaceticus; test: Antibacterial activity against Acinetobacter calcoaceticus ATCC 19606 by agar dilution method; type: functional
Proteus mirabilis = test: Antibacterial activity against Proteus mirabilis 09-1 by agar dilution method; type: functional

Row | Compound | MIC (Pseudomonas aeruginosa [1]) [µg/mL] | MIC (Enterococcus faecalis [2]) [µg/mL] | CC50 at 48 h [3] [µg/mL] | MIC (Enterococcus faecalis [4]) [µg/mL] | MIC (Enterococcus faecalis [5]) [µg/mL] | MIC (Enterococcus faecalis [6]) [µg/mL] | MIC (Enterococcus faecium [7]) [µg/mL] | MIC (Enterobacter cloacae) [µg/mL] | MIC (Enterococcus faecium [8]) [µg/mL] | MIC (Klebsiella aerogenes) [µg/mL] | MIC (Klebsiella pneumoniae [9]) [µg/mL] | MIC (Klebsiella pneumoniae [10]) [µg/mL] | MIC (Staphylococcus aureus [11]) [µg/mL] | MIC (Enterococcus faecium [12]) [µg/mL] | MIC (Morganella morganii) [µg/mL] | MIC (Serratia marcescens) [µg/mL] | MIC (Citrobacter freundii) [µg/mL] | MIC (Pseudomonas aeruginosa [13]) [µg/mL] | MIC [14] [µg/mL] | MIC (Staphylococcus aureus [15]) [µg/mL] | also measured
1 | N=C(NC1CCCCC1)c1ccc2cc(-c3ccc(Oc4ccc(-c5cc6ccc(C(=N)NC7CCCCC7)cc6[nH]5)cc4)cc3)[nH]c2c1 | > 128 | 4 (≈ 6.16 µM) | 59.2 (≈ 91.2 µM) | 8 (≈ 12.3 µM) | 4 (≈ 6.16 µM) | 4 (≈ 6.16 µM) | 2 (≈ 3.08 µM) | 128 (≈ 197 µM) | 4 (≈ 6.16 µM) | 128 (≈ 197 µM) | 128 (≈ 197 µM) | 128 (≈ 197 µM) | 4 (≈ 6.16 µM) | 8 (≈ 12.3 µM) | 64 (≈ 98.6 µM) | 128 (≈ 197 µM) | 128 (≈ 197 µM) | > 128 | 1 (≈ 1.54 µM) | 2 (≈ 3.08 µM) | MIC [16]: 2 µg/mL (≈ 3.08 µM); MIC (Providencia rettgeri): > 128 µg/mL; MIC (Klebsiella pneumoniae [17]): 128 µg/mL (≈ 197 µM); MIC (Escherichia coli [18]): 128 µg/mL (≈ 197 µM); MIC [19]: 2 µg/mL (≈ 3.08 µM); MIC (Staphylococcus aureus [20]): 4 µg/mL (≈ 6.16 µM); MIC (Escherichia coli [21]): 128 µg/mL (≈ 197 µM); MIC (Salmonella typhi): 64 µg/mL (≈ 98.6 µM); MIC (Escherichia coli [22]): 64 µg/mL (≈ 98.6 µM); MIC (Staphylococcus aureus [23]): 2 µg/mL (≈ 3.08 µM); MIC (Escherichia coli [24]): 128 µg/mL (≈ 197 µM); MIC (Proteus vulgaris): 128 µg/mL (≈ 197 µM); MIC (Staphylococcus aureus [25]): 2 µg/mL (≈ 3.08 µM); MIC (Pseudomonas aeruginosa [26]): > 128 µg/mL; MIC (Klebsiella pneumoniae [27]): 128 µg/mL (≈ 197 µM); MIC (Klebsiella pneumoniae [28]): > 128 µg/mL; MIC [29]: 64 µg/mL (≈ 98.6 µM); MIC (Proteus mirabilis): > 128 µg/mL
2 | N=C(NC1CCC1)c1ccc2cc(-c3ccc(Oc4ccc(-c5cc6ccc(C(=N)NC7CCC7)cc6[nH]5)cc4)cc3)[nH]c2c1 | > 128 | 64 (≈ 108 µM) | 32.6 (≈ 55 µM) | 64 (≈ 108 µM) | 64 (≈ 108 µM) | 64 (≈ 108 µM) | 32 (≈ 54 µM) | > 128 | > 128 | > 128 | > 128 | > 128 | 64 (≈ 108 µM) | 64 (≈ 108 µM) | > 128 | > 128 | > 128 | > 128 | 8 (≈ 13.5 µM) | 64 (≈ 108 µM) | MIC [16]: 8 µg/mL (≈ 13.5 µM); MIC (Providencia rettgeri): > 128 µg/mL; MIC (Klebsiella pneumoniae [17]): > 128 µg/mL; MIC (Escherichia coli [18]): > 128 µg/mL; MIC [19]: 16 µg/mL (≈ 27 µM); MIC (Staphylococcus aureus [20]): 64 µg/mL (≈ 108 µM); MIC (Escherichia coli [21]): > 128 µg/mL; MIC (Salmonella typhi): > 128 µg/mL; MIC (Escherichia coli [22]): > 128 µg/mL; MIC (Staphylococcus aureus [23]): 64 µg/mL (≈ 108 µM); MIC (Escherichia coli [24]): > 128 µg/mL; MIC (Proteus vulgaris): > 128 µg/mL; MIC (Staphylococcus aureus [25]): 64 µg/mL (≈ 108 µM); MIC (Pseudomonas aeruginosa [26]): > 128 µg/mL; MIC (Klebsiella pneumoniae [27]): > 128 µg/mL; MIC (Klebsiella pneumoniae [28]): > 128 µg/mL; MIC [29]: > 128 µg/mL; MIC (Proteus mirabilis): > 128 µg/mL
3 | N=C(NC1CCCC1)c1ccc2cc(-c3ccc(Oc4ccc(-c5cc6ccc(C(=N)NC7CCCC7)cc6[nH]5)cc4)cc3)[nH]c2c1 | > 128 | 128 (≈ 206 µM) | 28.9 (≈ 46.6 µM) | 128 (≈ 206 µM) | 128 (≈ 206 µM) | 128 (≈ 206 µM) | ≥ 128 | > 128 | > 128 | > 128 | > 128 | > 128 | 128 (≈ 206 µM) | ≥ 128 | > 128 | > 128 | > 128 | > 128 | 8 (≈ 12.9 µM) | 128 (≈ 206 µM) | MIC [16]: 8 µg/mL (≈ 12.9 µM); MIC (Providencia rettgeri): > 128 µg/mL; MIC (Klebsiella pneumoniae [17]): > 128 µg/mL; MIC (Escherichia coli [18]): > 128 µg/mL; MIC [19]: 16 µg/mL (≈ 25.8 µM); MIC (Staphylococcus aureus [20]): 128 µg/mL (≈ 206 µM); MIC (Escherichia coli [21]): > 128 µg/mL; MIC (Salmonella typhi): > 128 µg/mL; MIC (Escherichia coli [22]): > 128 µg/mL; MIC (Staphylococcus aureus [23]): 64 µg/mL (≈ 103 µM); MIC (Escherichia coli [24]): > 128 µg/mL; MIC (Proteus vulgaris): > 128 µg/mL; MIC (Staphylococcus aureus [25]): 64 µg/mL (≈ 103 µM); MIC (Pseudomonas aeruginosa [26]): > 128 µg/mL; MIC (Klebsiella pneumoniae [27]): > 128 µg/mL; MIC (Klebsiella pneumoniae [28]): > 128 µg/mL; MIC [29]: > 128 µg/mL; MIC (Proteus mirabilis): > 128 µg/mL
